Source: ChEMBL document CHEMBL4808233, “Discovery and evaluation of non-basic small molecule modulators of the atypical chemokine receptor CXCR7” (Bioorg Med Chem Lett, 2021)

How the values were obtained:
[1] = Lipophilicity, logD of the compound at pH 7.4 by shake flask method; format: physicochemical; settings: buffer
[2] = Cmax in C57BL6 mouse at 5 mg/kg, sc; format: ADME, organism-based; set-up: route subcutaneous, dose 5 mg/kg; settings: in vivo
[3] = AUC infinity in C57BL6 mouse at 10 mg/kg, po; format: ADME, organism-based; set-up: route oral, time infinity, dose 10 mg/kg; settings: in vivo
[4] = Cmax in C57BL6 mouse at 10 mg/kg, po; format: ADME, organism-based; set-up: route oral, dose 10 mg/kg; settings: in vivo
[5] = Bioavailability in C57BL6 mouse at 5 mg/kg, sc; format: ADME, organism-based; settings: in vivo
[6] = Tmax in C57BL6 mouse at 5 mg/kg, sc; format: ADME, organism-based; settings: in vivo
[7] = Protein binding in C57BL6 mouse plasma assessed as unbound fraction; format: ADME, cell-free
[8] = Half life in C57BL6 mouse at 10 mg/kg, po; format: ADME, organism-based; settings: in vivo
[9] = AUC infinity in C57BL6 mouse at 2 mg/kg, sc; format: ADME, organism-based; set-up: time infinity, route subcutaneous, dose 2 mg/kg; settings: in vivo
[10] = Tmax in C57BL6 mouse at 10 mg/kg, po; format: ADME, organism-based; settings: in vivo
[11] = target: Atypical chemokine receptor 3 (Mus musculus, UniProt P56485); test: Binding affinity to mouse CXCR7
Atypical chemokine receptor 3, sequence (P56485 whole entry): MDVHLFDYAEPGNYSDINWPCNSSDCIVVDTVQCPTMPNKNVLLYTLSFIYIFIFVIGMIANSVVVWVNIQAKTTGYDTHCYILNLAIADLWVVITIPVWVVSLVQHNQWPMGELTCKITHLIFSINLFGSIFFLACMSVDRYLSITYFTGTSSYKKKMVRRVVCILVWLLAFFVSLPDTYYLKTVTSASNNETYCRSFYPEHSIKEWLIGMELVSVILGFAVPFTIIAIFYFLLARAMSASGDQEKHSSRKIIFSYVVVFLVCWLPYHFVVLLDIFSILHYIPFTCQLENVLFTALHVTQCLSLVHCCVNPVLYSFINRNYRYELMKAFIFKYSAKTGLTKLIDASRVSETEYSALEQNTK

[12] = Unbound cmax in C57BL6 mouse; format: ADME; settings: in vivo
[13] = Volume of distribution at steady state in C57BL6 mouse at 2 mg/kg, iv; format: ADME, organism-based; settings: in vivo, read-out: Vdss
[14] = Half life in C57BL6 mouse at 5 mg/kg, sc; format: ADME, organism-based; settings: in vivo
[15] = Half life in C57BL6 mouse at 2 mg/kg, iv; format: ADME, organism-based; settings: in vivo
[16] = AUC infinity in C57BL6 mouse at 2 mg/kg, iv; format: ADME, organism-based; set-up: time infinity, route intravenous, dose 2 mg/kg; settings: in vivo
[17] = Oral bioavailability in C57BL6 mouse at 10 mg/kg; format: ADME, organism-based; settings: in vivo

Row | logD [1] | Cmax [2] | AUC(0-inf) [3] | Cmax [4] | bioavailability [5] | Tmax [6] | fraction unbound [7] | half-life [8] | AUC(0-inf) [9] | Tmax [10] | Ki [11] | fCmax [12] | Vd [13] | half-life [14] | half-life [15] | AUC(0-inf) [16] | bioavailability [17] | SMILES
1 | 3.4 |  |  |  |  |  |  |  |  |  |  |  |  |  |  |  |  | COc1ccc2cccnc2c1N1CCCN(Cc2csc(-c3ccccc3)n2)CC1
2 | 0.7 |  |  |  |  |  |  |  |  |  |  |  |  |  |  |  |  | CCc1ccn2ccnc2c1N1CCCN(CC2CCN(C(=O)[C@H]3C[C@@H]4CC[C@H]3O4)CC2)CC1
3 |  | 1550 ng/mL | 199 ng·h/mL | 185 ng/mL | 71% | 15 min | 0.4 | 78 min | 1530 ng·h/mL | 4.8 min | 155 nM | 1.56 µM | 0.3 L/kg | 30 min | 12 min | 864 ng·h/mL | 5% | CCN(C)C(=O)N1C[C@@H]2[C@H](C1)[C@H]2C(=O)N[C@H]1CCN(c2nccn3ccnc23)C1
